Legend:
[1] = test system: angiogenesis in the mouse cornea; experiment: mouse corneal micropocket assay (PAF-induced angiogenesis); type: in vivo, mice
Source text: The mouse corneal micropocket assay according to the procedure of B. M. Kenyon et al., “A model of angiogenesis in the mouse cornea,” Invest. Ophthalmol. Vis. Sci. vol. 37, pp. 1625-1632 (1996), was used to test whether LAU-8080 would inhibit angiogenesis.
Mouse corneal micropocket assay: Corneal micropockets were created with a modified von Graefe knife in both eyes of 5- to 6-weeks old mice. Pellets containing vehicle of 0.1% BSA in PBS with 12% polyhydroxyethylmetacrylate (Hydron) were implanted in the corneas at 1 mm from the limbus of the mice for a control. For the PAF experiment, 500 ng cPAF was added to the pellet with vehicle. For the PAF-LAU experiment, mice were implanted with Hydron pellets containing 0.1% BSA in PBS, 500 ng CPAF, and then treated with the PAF antagonist LAU-8080 (30 μg/g body weight), i.p., once a day. Six days later, corneal pictures were taken under the microscope and vessel length and clock hours of circumferential neovascularization were measured.

[2] = test system: PAF binding sites of microsomal membranes; settings: cited from earlier work
[3] = test system: middle cerebral artery occlusion and reperfusion; experiment: middle cerebral artery occlusion (MCAO) and reperfusion stroke model; type: in vivo, mice (C57BL/6)
Source text: To study the properties of LAU-8080 in an animal model of stroke, the technique of occluding the middle cerebral artery (middle cerebral artery occlusion, “MCAO”) which has been adapted to the mouse was used. The mouse middle cerebral artery occlusion is a well-recognized model of focal stroke as neuronal damage occurs when ischemia-reperfusion damages the brain. Adult male mice (C57BL/6) weighing 22-25 grams were induced to anesthesia with 1/70/30% halothane/nitrous oxide/oxygen, on a temperature controlled blanket. A line of PAF-R deficient mice (PAF receptor Knock-out mice), as described in S. Ishi et al., “Impaired anaphylactic responses with intact sensitivity to endotoxin in mice lacking a platelet-activating factor,” J. Exp. Med., vol. 187, pp. 1779-1788 (1998), was also used. The common carotid and external carotid arteries were exposed and dissected from surrounding tissue; the right external carotid artery was ligated. The right common carotid was temporarily occluded. A small arteriotomy to the external carotid artery was made so the occluding filament was introduced and advanced to the common carotid artery, and redirected into the internal carotid artery. The filament was advanced so that the blunted tip was placed in the anterior cerebral artery and the side of the filament occluded the origin of the middle cerebral artery. The common carotid artery was gently released, restoring blood flow to the carotid system. The wound was inspected for bleeding. All retracting sutures were removed, and the wound was closed. The anesthetic gases were stopped, and the animal was given oxygen until fully awake, then returned to his cage. After 60 minutes of occlusion, animals were reperfused by removal occluding filament. Animals were placed under anesthesia again, the occluding suture was delicately withdrawn from the arterial lumen, restoring blood flow to the territory of the middle cerebral artery. The wound was closed by interrupted silk sutures. The anesthetic gases were stopped, and the animal was given oxygen until fully awake.
The treated animals received a single i.p. injection of LAU-8080 (30 mg/kg) at 1 hour after reperfusion started, and control animals received vehicle injection (2-hydroxypropyl-β-cyclodextrin).
Scores were collected according Bederson's classification: a score of “0” indicates the animal moved freely changing directions. […]
(§1) Volumetric changes in infarcted brain regions in mice after 1 hour MCAO and 24-48 hours reperfusion was obtained by staining brain slices 1 mm thick with 2% 2,3,5-triphenyltetrazolium chloride (TTC). Quantitative analysis of the volume of the infarcted area was obtained by image-analysis.

[4] = test system: middle cerebral artery occlusion and reperfusion; experiment: MCAO and reperfusion stroke model in PAF receptor Knock-out mice; type: in vivo, PAF-R deficient mice (PAF receptor Knock-out mice)
Source text: To study the properties of LAU-8080 in an animal model of stroke, the technique of occluding the middle cerebral artery (middle cerebral artery occlusion, “MCAO”) which has been adapted to the mouse was used. The mouse middle cerebral artery occlusion is a well-recognized model of focal stroke as neuronal damage occurs when ischemia-reperfusion damages the brain. Adult male mice (C57BL/6) weighing 22-25 grams were induced to anesthesia with 1/70/30% halothane/nitrous oxide/oxygen, on a temperature controlled blanket. A line of PAF-R deficient mice (PAF receptor Knock-out mice), as described in S. Ishi et al., “Impaired anaphylactic responses with intact sensitivity to endotoxin in mice lacking a platelet-activating factor,” J. Exp. Med., vol. 187, pp. 1779-1788 (1998), was also used. The common carotid and external carotid arteries were exposed and dissected from surrounding tissue; the right external carotid artery was ligated. The right common carotid was temporarily occluded. […]
as §1

photoreceptor cells = experiment: light-induced retina damage model (bright light-treated photoreceptors); type: in vivo, Sprague-Dawley rats; settings: rat, 30 mg/kg i.p. pretreatment
Experimental: The light-induced retina damage model selectively promotes the killing of photoreceptor cells as it occurs in age-related macular degeneration and retinitis pigmentosa.
Sprague-Dawley rats (150-175 g males) were dark adapted for 3 days. Two hours before light treatment they were injected i.p. with LAU-8080 (30 mg/kg) suspended in a vehicle (cyclo-dextrin) or just vehicle. A third group received no injection. Rats were placed in 5 inch diameter cylindrical lucite tubes which were then placed within an 8-light array of 10 inch diameter fluorescent lights (40 Watt, G.E. cool white; 350 μE/m^2·s; 25 klux) for up to 5 hours. After 10 days in darkness, eyes were collected and prepared for histology. […] The profile of the photoreceptor nuclear layer of the light+vehicle, light+vehicle+LAU-8080, and dark rat retinas were compared. The percent cell loss under each condition was calculated against the dark animal controls.

[5] = test system: PAF binding site of the synaptosomal, plasma membrane; settings: cited from earlier work

Molecule | angiogenesis (vessel length and clock hours of circumferential neovascularization) ([1]; 500 ng cPAF pellet, LAU-8080 30 μg/g body weight i.p. once a day, 6 days, p<0.05) | displacement of PAF [2] | neurological scores (Bederson's classification) ([3]; 30 mg/kg i.p. 1 hour after reperfusion, noticeable 24 hours after reperfusion) | infarct volume ([3]; 1 hour MCAO and 48 hours reperfusion, injection 1 hour after reperfusion onset, p<0.0026) | survival ([3]; 1 hour MCAO, single i.p. 30 mg/kg 1 hour after onset of reperfusion, followed-up 14 days, n=20, p<0.04 vs vehicle) [%] | effect of injection at different times during the procedure versus 1 hour after reperfusion ([3]; MCAO mice) | survival ([4]; PAF knock-out mice, injection one hour after reperfusion, p<0.0074) | infarct volume ([4]; PAF receptor Knock-out mice) | cell loss in an area near the center of the photodamage region (photoreceptor cells) | depth of photoreceptor nuclear layer (photoreceptor cells) [cells deep] | displacement of PAF [5] | angiogenesis (vessel length and clock hours) induced by pellet ([1]; pellet with 500 ng cPAF, 6 days after implantation, versus vehicle pellet)
COc1ccc(NC(=S)N2CCc3c(sc4c3C(c3ccccc3Cl)=NCc3nnc(C)n3-4)C2)cc1 [LAU-8080, 6-(2-chlorophenyl)-9-[(4-methoxyphenyl)thiocarbamoyl]-1-methyl-7,8,9,10-tetrahydro-4H-pyrido[4′,3′:4,5]thieno[3,2-f]-1,2,4-triazolo[4,3-a]-1,4-diazepine] | significantly reduced | displace PAF from microsomal membranes | significative improvement | significant reduction | 35 | did not differ significantly | significative protection | small reduction | complete lack of cell loss | 12 | not from the synaptosomal, plasma membrane | –
1-O-alkyl-2-acetyl-sn-glycero-3-phosphocholine [PAF, reference compound] | – | – | – | – | – | – | – | – | – | – | – | strongly induced

— patent US6987105B2, “Synthesis and use of thienotriazolodiazepines” (Board of Supervisors of Louisiana State University And …, priority 2000, dated 2006)
